Data from paper PMC7573271, “Structural characterization of anti-CCL5 activity of the tick salivary protein evasin-4” (The Journal of Biological Chemistry, 2020).
Residue numbers refer to the chain shown, from its start. Names may count otherwise. “Also recorded” adds a separate entry of the source. Where two headings read alike, the source gives them in different places.

How the values were obtained:
human CCL5 = biological target: T1, human CCL5 (Homo sapiens, UniProt P13501); test: Fluorescence anisotropy titration of 5(6)-Fam-labeled peptides by CCL5; type: binding; details: 100 nM 5(6)-Fam-labeled peptide, HEPES pH 7.4, 37 °C; for effect of CCL5 addition on fluorescence anisotropy / affinity in words: CCL5 up to 500 nM
T1 sequence (P13501 24-91): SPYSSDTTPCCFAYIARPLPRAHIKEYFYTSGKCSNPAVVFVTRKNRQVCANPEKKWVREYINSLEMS
Excerpt: To assess this hypothesis, two peptides taken from the Evasin-4 sequence were synthesized by Boc-based solid-phase peptide synthesis (Figs. S8 and S9). The first peptide, Ev4 Glu^14–Ala^23, comprises the Glu^14–Ala^23 residues of Evasin-4, whereas the second one, Ev4 Glu^14–Asn^31, includes the longer region Glu^14–Asn^31 (Fig. 4C). Cys^27 in the Ev4 Glu^14–Asn^31 was mutated to alanine to prevent oxidation and formation of intermolecular disulfide bonds. Affinity of obtained peptides to CCL5 was studied by fluorescence anisotropy using 100 nM of 5(6)-Fam–labeled peptides and human CCL5.
Fluorescence polarization assays were carried out using FluoroMax 4 fluorimeter (Horiba) equipped with FM4-2000 polarizers in 3-ml cuvettes. 100 nM solution of 5(6)-Fam–labeled peptides in HEPES buffer pH 7.4 were titrated by a 30 μM stock solution of CCL5 at 37 °C. Fluorescent signal was measured using 495 and 520 nm as excitation and emission wavelengths. The final titration curve is a result of three or four independent measurements.

[1] = tested on: CCL5-induced THP-1 cell migration; test: THP-1 monocytic cell migration assay toward CCL5; type: cell-based, human; details: CCL5 0.5 µg/ml
Procedure: Human acute monocytic leukemia cell line (THP-1) monocytic cells were purchased from Leibniz-Institut DSMZ (ACC 16). The cells were cultured in RPMI 1640 GlutaMAX medium supplemented with 20 % fetal calf serum and 1 % penicillin/streptomycin (all Gibco ThermoFisher). The cells were cultured in a humidified atmosphere (5 % CO2, 95 % air, 37 °C) and routinely passed by splitting the cells (1:10) to fresh medium. The migration of monocytic cells toward chemoattractants was assessed in a 12-well chemotaxis chamber equipped with a 5-μm polycarbonate membrane (both Neuroprobe, Gaithersburg, MD, USA). Chemoattractants CCL5 (0.5 µg/ml) or CXCL4 (0.5 µg/ml) were preincubated with met–Evasin-4 (1 µg/ml) for 2 h at 37 °C subsequently added to the bottom well of the chemotaxis chamber. THP-1 monocytic cells (1 × 10^6/ml), suspended in RPMI 1640 GlutaMAX medium supplemented with 1 % fetal calf serum, were added in the upper wells and incubated for 90 min at 37 °C in a humidified atmosphere (5 % CO2, 95 % air). The nonmigrated cells were carefully removed, and the membrane was stained with Diff-Quick stain (Eberhard Lehmann GmbH, Berlin, Germany). Migrated cells were visualized by light microscopy, counted manually in five fields, and expressed as cells/mm^2.

E66S CCL5 = test: NMR titration of 15N E66S CCL5 by Ev4 Glu14-Asn31; type: binding; details: 25 mM acetate
Procedure: In the case of E66S CCL5/Ev4 Glu^14–Asn^31 complex, 25 μM of ^15N E66S CCL5 in 25 mM acetate buffer, pH 4.5, was titrated by increasing concentrations of Ev4 Glu^14–Asn^31. For each concentration ^15N-^1H HSQC was recorded. Backbone resonance assignments were derived by following the shift of peak positions.

[2] = Solubility/precipitation observed in NMR and crystallization sample preparation
Procedure: For NMR sample preparation, lyophilized proteins were dissolved in 25 mM phosphate buffer (pH 6.8–7.1) or 25 mM sodium acetate-d^3 buffer (pH 4.5) containing 0.1 mM EDTA, 0.2 mM sodium azide, 5% (v/v) D2O for deuterium lock, at final concentration of 50 μM for m–t-Evasin-4 and 82, 20, and 1 μM for E66S CCL5. The samples were buffer exchanged four or five times by ultracentrifugation using prewashed Amicon Ultra-3000 3-kDa (Millipore, USA) ultracentrifugation filters. Final NMR samples were prepared in 3- or 5-mm NMR tubes, containing traces of DSS for chemical shift calibration. All NMR spectra were recorded using a Bruker Avance III HD 700 MHz spectrometer, equipped with a cryogenically cooled TCI probe at 37 °C. To make the complex, equimolar amounts of unlabeled met–Evasin-4 or E66S CCL5 were titrated to their [^15N,^13C]-enriched complement samples. For met–Evasin-4 and the two complexes, the solution pH of the NMR sample was carefully adjusted to pH 7.1 to ensure stable, nonprecipitating solutions.

CCL3 = details: cited from earlier work
Excerpt: Disruption of the chemokine signaling system is one of the crucial parts of ticks' strategy to evade immune responses. To neutralize chemokines, ticks secrete small cysteine-rich chemokine-binding proteins in their saliva with no homologues in mammals, termed Evasins ([6]). Evasins can be divided into two structurally unrelated C6 or C8 subfamilies embodying six and eight cysteines, respectively ([6]). […] In fact, the N terminus of C8-Evasins seems to play a crucial role in chemokine binding. For instance, replacement of the N terminus of Evasin-1 by that of P672, another C8-Evasin with different chemokine selectivity, produced a chim ...

CCL18 = details: cited from earlier work
Excerpt: (§1) Disruption of the chemokine signaling system is one of the crucial parts of ticks' strategy to evade immune responses. To neutralize chemokines, ticks secrete small cysteine-rich chemokine-binding proteins in their saliva with no homologues in mammals, termed Evasins ([6]). Evasins can be divided into two structurally unrelated C6 or C8 subfamilies embodying six and eight cysteines, respectively ([6]). […] Although several hundred of putative C6- and C8-Evasins have been identified in tic ...

CCL4 = details: cited from earlier work
Excerpt: as §1

[3] = NMR analysis of E66S CCL5 monomer/dimer equilibria; type: physicochemical; details: pH 4.5, 37 °C
Procedure: To study the structural determinants of E66S CCL5 involved in Evasin-4 binding, NMR spectra were recorded for the [^15N,^13C]E66S CCL5–Evasin-4 complex. Initial ^15N-^1H HSQC spectra of [^15N,^13C]E66S CCL5 were recorded at pH 4.5 and 37 °C at concentrations of 1 and 20 μM. […] This observation goes in line with the obtained crystal structure because the E66S CCL5 dimer interface is formed by interactions of the N terminus with the 30s loop and β3-strand.

[4] = physiological pH; cited from earlier work
Procedure: (§2) CCL5 can oligomerize, forming dimers and oligomers of a higher order ([16]), which would complicate analysis of Evasin-4 binding. […] To address this question, surface plasmon resonance (SPR) biosensor analysis was performed with biotinylated Eva ...

Evasin-4 = details: cited from earlier work
Procedure: as §2

Q: With “H-EEEDDYTAYA-NH2 [Ev4 Glu^14–Ala^23, peptide comprising the Glu14–Ala23 residues of Evasin-4]” as the molecule, how does the “effect of CCL5 addition on fluorescence anisotropy / affinity in words” value (human CCL5) read?
A: no effect even at concentration of 500 nM

Q: What about the “affinity to CCL5” value (human CCL5; fluorescence anisotropy) of the same molecule?
A: no affinity to CCL5

Q: Which “effect of CCL5 addition on fluorescence anisotropy / affinity in words” value (human CCL5) does the source give for “H-EEEDDYTAYAPLTAYFTN-NH2 [Ev4 Glu^14–Asn^31, H2N-EEEDDYTAYAPLTAYFTN-CONH2]” here?
A: dose-dependent increase of fluorescence anisotropy

Q: What about the “affinity to CCL5” value (human CCL5; fluorescence anisotropy) of the same molecule?
A: nanomolar affinity to CCL5; also recorded: binds CCL5 with nanomolar affinity

Q: What about the Kd (human CCL5; fluorescence anisotropy, titrated by 30 μM stock of CCL5, ex 495/em 520 nm, three or four independent measurements, read-out: apparent KD) of the same molecule?
A: 0.069 ± 0.012 µM

Q: And the “required inhibitory concentrations compared with full-length Evasin-4” value ([1]; CCL5-induced THP-1 migration, compared with full-length protein)?
A: the required concentrations were higher compared with the full-length protein

Q: What about the “concentration at which full inhibition of CCL5-induced THP-1 migration was reached” value ([1]; full inhibition only at this concentration, 1 × 10^6 cells/ml, 90 min, 37 °C) of the same molecule?
A: 10 µM

Q: And the “inhibition of CCL5-induced THP-1 migration” value ([1]; increasing concentrations of Ev4 Glu14-Asn31, 1 × 10^6 cells/ml, 90 min, 37 °C)?
A: dose-dependent inhibition of CCL5-induced THP-1 cell migration; also recorded: effectively inhibits CCL5-induced monocyte migration; also recorded: blocks CCL5-induced monocyte migration

Q: What about the “effect of peptide titration on E66S CCL5 signals” value (E66S CCL5; 25 μM [15N]E66S CCL5, increasing concentrations of peptide, pH 4.5) of the same molecule?
A: binds the CCL5 monomer; also recorded: gradual shift of signals of monomeric E66S CCL5 and decrease of signal intensity for the dimeric form; also recorded: only CCL5 monomer signals are affected upon binding

Q: What about the “most perturbed residues of E66S CCL5 by peptide binding” value (E66S CCL5; 25 μM [15N]E66S CCL5 monomer form, before and after 500 μM Ev4 Glu14-Asn31, pH 4.5, 37 °C) of the same molecule?
A: N-loop (Phe^12–Arg^21 and His^23) and in the β3-strand (Gln^48 and Cys^50)

Q: What about the “solubility of peptide” value ([2]; low pH values, negatively charged residues) of the same molecule?
A: poorly soluble at low pH values

Q: And the “solubility of complex with E66S CCL5” value ([2]; peptide/E66S CCL5 complex compared with E66S CCL5-Evasin-4 complex)?
A: more soluble compared with the E66S CCL5–Evasin-4 complex

B1: Evasin-1: 94–amino acid protein from the C8 subfamily, from Rhipicephalus sanguineus (protein, UniProt P0C8E7 21-114, looked up)
Evasin-1: EDDEDYGDLGGCPFLVAENKTGYPTIVACKQDCNGTTETAPNGTRCFSIGDEGLRRMTANLPYDCPLGQCSNGDCIPKETYEVCYRRNWRDKKN
Q: With B1 as the molecule, how does the affinity in words (CCL3) read?
A: high-affinity binder

Q: And the affinity in words (CCL18)?
A: high-affinity binder

Q: And the affinity in words (CCL4)?
A: high-affinity binder

B2: E66S CCL5: CCL5 mutant that mainly forms dimers at physiological pH (protein, UniProt P13501 24-91, looked up, variant E66S)
C-C motif chemokine 5: T1 sequence (P13501 24-91) with E66S
Q: Which results are given for B2?
A: oligomeric form ([3]; 1 μM E66S CCL5, 15N-1H HSQC): monomeric form; oligomeric form ([3]; 20 μM E66S CCL5, 15N-1H HSQC, two sets of signals): monomeric and dimeric form; oligomeric form [4]: mainly forms dimers

B3: E66A CCL5: CCL5 mutant with deficiency in oligomerization (ref 25) (protein, UniProt P13501 24-91, looked up, variant E66A)
C-C motif chemokine 5: T1 sequence (P13501 24-91) with E66A
Q: With B3 as the molecule, how does the “oligomerization and Evasin-4 inhibition potency” value (Evasin-4) read?
A: deficiency in oligomerization without disturbing Evasin-4 inhibition potency

B4: CCL5: chemokine CC-motif ligand 5, also known as RANTES (protein, UniProt P13501 24-91, looked up)
C-C motif chemokine 5: T1 sequence (P13501 24-91)
Q: For B4, which “induction of THP-1 migration” value ([1]; compared with control in the absence of chemoattractants, 90 min, 37 °C) is on record?
A: induced significant migration of THP-1 cells
